Assays:
[1] = tested on: human umbilical vein endothelial cells (HUVECs, Lonza); test: Promotion of nitric oxide (NO) production from vascular endothelial cells, DAF-2 fluorescence; format: cell-based; details: 24 hours, relative to control group; for Relative amount of NO released (%) Average: n = 5
Procedure: The effect of xanthohumol (produced by Gifu Shellac Manufacturing Co., Ltd.) in promoting nitric oxide (NO) production from vascular endothelial cells was evaluated by the following procedure.
Specifically, human umbilical vein endothelial cells (HUVECs, Lonza) were treated with xanthohumol for 24 hours, and the amount of nitric oxide (NO) production was measured (n = 5).
HUVECs in a medium (EGM-2, Lonza) were seeded onto a 96-well plate at 10000 cells/0.1 mL/well, and cultured in a CO2 incubator. On the following day, the medium of a xanthohumol-added group was replaced by a medium to which xanthohumol was added; the control group was transferred to a control medium; and the positive control group was transferred to a medium containing positive control (Lovastatin, 10 µM) . Then, these groups were cultured in a CO2 incubator for additional 24 hours.
The medium to which xanthohumol was added was prepared by dissolving xanthohumol in dimethyl sulfoxide (DMSO) and adding the solution to a medium such that the final concentration of xanthohumol was 1 µg/mL, 3 µg/mL, or 10 µg/mL. The control medium was prepared by adding DMSO to a medium to the same concentration as that in the xanthohumol-added group. The medium containing positive control was prepared by adding a solution of lovastatin in DMSO to a medium such that the final concentration of lovastatin (produced by FUJIFILM Wako Pure Chemical Corporation) was 10 µM.
After culturing for 24 hours, diaminofluorescein-2 diacetate (DAF-2, Goryo Chemical, Inc.) was added to each medium to a final concentration of 10 µM, followed by incubation in a CO2 incubator for two hours. Subsequently, the culture supernatant was transferred to a 96-well plate (black plate), and the fluorescence intensity (ex. 495 nm, em. 515 nm) was measured. The fluorescence intensity relative to the fluorescence intensity of the control group was determined as the relative amount of NO released. Significant difference was tested between the groups (control group vs. xanthohumol-added group) by Student's t-test (significant level: p < 0.05). […]

[2] = target: T1, angiotensin-converting enzyme (ACE) (Homo sapiens, UniProt P12821); test: ACE inhibitory activity measured with ACE Kit-WST (Dojindo Laboratories); format: biochemical; details: n = 4
T1 construct: purchased Dojindo Laboratories
Procedure: The angiotensin-converting enzyme (ACE) inhibitory effect of xanthohumol was evaluated by the following procedure.
Specifically, the ACE inhibitory activity was measured for the case where xanthohumol (produced by Gifu Shellac Manufacturing Co., Ltd.) was added as a test substance (n = 4 per level), using an ACE Kit-WST (Dojindo Laboratories) according to the instructions accompanying the kit.
A level with addition of distilled water instead of xanthohumol was set as a control group.
A level with no addition of xanthohumol which was measured in an ACE (enzyme)-free reaction system was set as an enzyme-free group.
The ACE inhibitory activity (%) of the test substance was calculated using the following formula 1. Significant difference was tested between the groups (control group vs. test substance-added group) by Student's t-test (significant level: p < 0.05). ACE inhibitory activity(%); = 100 × ((absorbanceat450nmofcontrolgroup)−; (absorbance at 450 nm in test substance−added; group))/((absorbanceat450nmofcontrolgroup)−; (absorbanceat450nmofenzyme-freegroup)) [formula]

[3] = Xanthohumol concentration 3 µg/mL
[4] = Xanthohumol concentration 10 µg/mL

T1 sequence (P12821 30-1306, species assumed): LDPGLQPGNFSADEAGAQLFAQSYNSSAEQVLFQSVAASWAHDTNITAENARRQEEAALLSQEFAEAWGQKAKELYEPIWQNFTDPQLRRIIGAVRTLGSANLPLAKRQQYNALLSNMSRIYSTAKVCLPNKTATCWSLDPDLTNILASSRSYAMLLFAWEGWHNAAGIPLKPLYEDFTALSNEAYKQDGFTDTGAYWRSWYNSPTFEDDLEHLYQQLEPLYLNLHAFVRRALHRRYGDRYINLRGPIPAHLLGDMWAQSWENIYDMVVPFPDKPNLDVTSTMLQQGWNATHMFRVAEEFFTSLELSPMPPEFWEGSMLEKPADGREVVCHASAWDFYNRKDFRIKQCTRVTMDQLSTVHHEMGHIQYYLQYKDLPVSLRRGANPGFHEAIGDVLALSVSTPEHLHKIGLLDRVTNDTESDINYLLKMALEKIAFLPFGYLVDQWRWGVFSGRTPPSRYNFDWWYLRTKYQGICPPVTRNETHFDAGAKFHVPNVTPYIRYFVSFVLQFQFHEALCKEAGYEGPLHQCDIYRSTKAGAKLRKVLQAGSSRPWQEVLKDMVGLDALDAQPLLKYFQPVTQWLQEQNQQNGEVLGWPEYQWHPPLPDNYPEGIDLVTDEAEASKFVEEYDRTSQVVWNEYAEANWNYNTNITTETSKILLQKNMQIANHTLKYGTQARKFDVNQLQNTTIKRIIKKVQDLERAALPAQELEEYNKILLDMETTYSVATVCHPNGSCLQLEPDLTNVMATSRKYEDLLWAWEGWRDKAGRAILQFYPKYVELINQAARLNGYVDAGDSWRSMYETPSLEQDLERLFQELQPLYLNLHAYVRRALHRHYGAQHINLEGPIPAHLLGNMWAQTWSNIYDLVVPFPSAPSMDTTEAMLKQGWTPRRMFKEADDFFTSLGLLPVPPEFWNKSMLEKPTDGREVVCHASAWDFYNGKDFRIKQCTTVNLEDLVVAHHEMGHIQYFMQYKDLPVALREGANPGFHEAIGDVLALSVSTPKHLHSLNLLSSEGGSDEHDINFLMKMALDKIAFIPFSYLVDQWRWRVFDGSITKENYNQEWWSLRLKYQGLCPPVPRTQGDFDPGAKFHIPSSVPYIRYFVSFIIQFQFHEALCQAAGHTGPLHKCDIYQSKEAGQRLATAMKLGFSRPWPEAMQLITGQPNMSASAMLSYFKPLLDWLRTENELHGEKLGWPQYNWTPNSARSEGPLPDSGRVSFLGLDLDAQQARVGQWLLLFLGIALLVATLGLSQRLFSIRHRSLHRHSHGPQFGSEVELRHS

inhibition at 3 µg/mL [2, 3] [%]	inhibition at 10 µg/mL [2, 4] [%]	inhibition at 30 µg/mL ([2]; Xanthohumol concentration 30 µg/mL) [%]	SMILES	relative amount of NO released ([1]; Lovastatin 10 µM, average ± standard error) [%]	Relative amount of NO released (%) Average ([1]; Xanthohumol concentration 1 µg/mL) [%]	Relative amount of NO released (%) Average [1, 3] [%]	Relative amount of NO released (%) Average [1, 4] [%]
–	–	–	CC[C@H](C)C(=O)O[C@H]1C[C@@H](C)C=C2C=C[C@H](C)[C@H](CC[C@@H]3C[C@@H](O)CC(=O)O3)[C@H]21 [positive control, Lovastatin, reference compound]	122.8 ± 2.7	–	–	–
3.33	15.8	19.5	COc1cc(O)c(CC=C(C)C)c(O)c1C(=O)/C=C/c1ccc(O)cc1 [Xanthohumol]	–	108.3	124.8	147.5
